Test results taken from the supplement of paper PMC10307832.

Key:
Assay in all cases: relative viability (nuclei count vs DMSO), 5 days (fraction); higher = more cells survive
[1] = compound: Cn1cc(-c2cnc3ccc4ccc(CS(=O)(=O)NCc5ccccn5)cc4c(=O)c3c2)cn1 [MK-8033] + Nc1nc2[nH]cc(CCc3ccc(C(=O)N[C@@H](CCC(=O)O)C(=O)O)cc3)c2c(=O)[nH]1 [Pemetrexed] (partner 0.2 µM)
Outline: (§1)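 Lung cancer cell lines in 1536-well plates got either a single drug or a fixed anchor-drug dose together with five library-drug doses (not always all listed) in √10 steps, by pin tool, on the day after seeding. Nuclei were counted after 5 days, and relative viability is the treated-to-vehicle ratio of nuclei counts. Values are medians of duplicate plates.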

[2] = compound: CC[C@@H](C)CNCC(=O)N1CCC2=C([C@@H]1COC3=CC=CC(=C3)C)C=CS2 [RU-SKI 43] + CC1(C)CCC(c2ccc(Cl)cc2)=C(CN2CCN(c3ccc(C(=O)NS(=O)(=O)c4ccc(N[C@H](CCN5CCOCC5)CSc5ccccc5)c(S(=O)(=O)C(F)(F)F)c4)cc3)CC2)C1 [Navitoclax] (partner 0.5 µM)
Outline: as §1

[3] = compound: CCc1c2c(nc3ccc(OC(=O)N4CCC(N5CCCCC5)CC4)cc13)-c1cc3c(c(=O)n1C2)COC(=O)[C@]3(O)CC [Irinotecan] + CC1(C)CCC(c2ccc(Cl)cc2)=C(CN2CCN(c3ccc(C(=O)NS(=O)(=O)c4ccc(N[C@H](CCN5CCOCC5)CSc5ccccc5)c(S(=O)(=O)C(F)(F)F)c4)cc3)CC2)C1 [Navitoclax] (partner 0.5 µM)
Outline: as §1

[4] = compound: CCc1c2c(nc3ccc(OC(=O)N4CCC(N5CCCCC5)CC4)cc13)-c1cc3c(c(=O)n1C2)COC(=O)[C@]3(O)CC [Irinotecan] + CC(=O)c1c(C)c2cnc(Nc3ccc(N4CCNCC4)cn3)nc2n(C2CCCC2)c1=O [Palbociclib] (partner 0.5 µM)
Outline: as §1

Cell Line NCI-H1993 has a relative viability ([1]; first compound 0.02 µM) of 0.537, a relative viability ([1]; first compound 0.06325 µM) of 0.58 and a relative viability ([1]; first compound 0.2 µM) of 0.498. The relative viability ([1]; first compound 0.6325 µM) was 0.575, the relative viability ([1]; first compound 2 µM) was 0.46 and the relative viability ([2]; first compound 0.1 µM) was 0.932. It also gave a relative viability ([2]; first compound 0.3162 µM) of 0.91, a relative viability ([2]; first compound 1 µM) of 0.982 and a relative viability ([2]; first compound 3.162 µM) of 1.05. For the same cell line, the relative viability ([2]; first compound 10 µM) was 1.02, the relative viability ([3]; first compound 0.6325 µM) was 0.97 and the relative viability ([3]; first compound 2 µM) was 0.834. It also gave a relative viability ([3]; first compound 6.325 µM) of 0.588, a relative viability ([3]; first compound 20 µM) of 0.812 and a relative viability ([4]; first compound 2 µM) of 0.513. For the same cell line, the relative viability ([4]; first compound 6.325 µM) was 0.521 and the relative viability ([4]; first compound 20 µM) was 1.01.

For CAL-12T, the relative viability ([1]; first compound 0.02 µM) was 1.26, the relative viability ([1]; first compound 0.06325 µM) was 1.18 and the relative viability ([1]; first compound 0.2 µM) was 1.12. The relative viability ([1]; first compound 0.6325 µM) was 1.35, the relative viability ([1]; first compound 2 µM) was 1.18 and the relative viability ([2]; first compound 0.1 µM) was 1.2. For the same cell line, the relative viability ([2]; first compound 0.3162 µM) was 1.53, the relative viability ([2]; first compound 1 µM) was 1.54 and the relative viability ([2]; first compound 3.162 µM) was 1.13. For the same cell line, the relative viability ([2]; first compound 10 µM) was 1.14, the relative viability ([3]; first compound 0.6325 µM) was 1.32 and the relative viability ([3]; first compound 2 µM) was 1.43. The relative viability ([3]; first compound 6.325 µM) was 0.491, the relative viability ([3]; first compound 20 µM) was 0.38 and the relative viability ([4]; first compound 0.6325 µM) was 0.316. For the same cell line, the relative viability ([4]; first compound 2 µM) was 0.344, the relative viability ([4]; first compound 6.325 µM) was 0.251 and the relative viability ([4]; first compound 20 µM) was 0.197.

In the case of ChaGo-K-1, the relative viability ([1]; first compound 0.02 µM) is reported as 0.251, the relative viability ([1]; first compound 0.06325 µM) is reported as 0.223 and the relative viability ([1]; first compound 0.2 µM) is reported as 0.253. For the same cell line, the relative viability ([1]; first compound 0.6325 µM) was 0.267, the relative viability ([1]; first compound 2 µM) was 0.262 and the relative viability ([2]; first compound 0.1 µM) was 1.26. It also gave a relative viability ([2]; first compound 0.3162 µM) of 0.996, a relative viability ([2]; first compound 1 µM) of 1.58 and a relative viability ([2]; first compound 3.162 µM) of 0.569. For the same cell line, the relative viability ([2]; first compound 10 µM) was 0.742, the relative viability ([3]; first compound 2 µM) was 0.784 and the relative viability ([3]; first compound 6.325 µM) was 0.407. For the same cell line, the relative viability ([3]; first compound 20 µM) was 0.33, the relative viability ([4]; first compound 0.6325 µM) was 0.256 and the relative viability ([4]; first compound 2 µM) was 0.247. It also gave a relative viability ([4]; first compound 6.325 µM) of 0.22 and a relative viability ([4]; first compound 20 µM) of 0.203.

NCI-H1299 gave a relative viability ([2]; first compound 0.1 µM) of 1.04, a relative viability ([2]; first compound 0.3162 µM) of 1.09 and a relative viability ([2]; first compound 1 µM) of 1.07. For the same cell line, the relative viability ([2]; first compound 3.162 µM) was 1.01, the relative viability ([2]; first compound 10 µM) was 1.03 and the relative viability ([3]; first compound 0.6325 µM) was 0.886. For the same cell line, the relative viability ([3]; first compound 2 µM) was 0.845, the relative viability ([3]; first compound 6.325 µM) was 0.431 and the relative viability ([3]; first compound 20 µM) was 0.303.

COR-L23 showed a relative viability ([1]; first compound 0.02 µM) of 0.2, a relative viability ([1]; first compound 0.06325 µM) of 0.197 and a relative viability ([1]; first compound 0.2 µM) of 0.219. It also gave a relative viability ([1]; first compound 0.6325 µM) of 0.212, a relative viability ([1]; first compound 2 µM) of 0.197 and a relative viability ([2]; first compound 0.1 µM) of 0.971. For the same cell line, the relative viability ([2]; first compound 0.3162 µM) was 0.628, the relative viability ([2]; first compound 1 µM) was 1.11 and the relative viability ([2]; first compound 3.162 µM) was 1.04. The relative viability ([2]; first compound 10 µM) was 1.07, the relative viability ([3]; first compound 0.6325 µM) was 0.413 and the relative viability ([3]; first compound 2 µM) was 0.261. For the same cell line, the relative viability ([3]; first compound 6.325 µM) was 0.154, the relative viability ([3]; first compound 20 µM) was 0.115 and the relative viability ([4]; first compound 0.6325 µM) was 0.155. For the same cell line, the relative viability ([4]; first compound 2 µM) was 0.218, the relative viability ([4]; first compound 6.325 µM) was 0.184 and the relative viability ([4]; first compound 20 µM) was 0.105.

NCI-H1703 gave a relative viability ([2]; first compound 0.1 µM) of 1.2, a relative viability ([2]; first compound 0.3162 µM) of 1.08 and a relative viability ([2]; first compound 1 µM) of 0.987. The relative viability ([2]; first compound 3.162 µM) was 1.16, the relative viability ([2]; first compound 10 µM) was 0.535 and the relative viability ([3]; first compound 0.6325 µM) was 1.16. The relative viability ([3]; first compound 2 µM) was 1.45, the relative viability ([3]; first compound 6.325 µM) was 0.514 and the relative viability ([3]; first compound 20 µM) was 0.105.

Work on NCI-H727 yielded a relative viability ([2]; first compound 0.1 µM) of 0.305, a relative viability ([2]; first compound 0.3162 µM) of 0.355 and a relative viability ([2]; first compound 1 µM) of 0.397. The relative viability ([2]; first compound 3.162 µM) was 0.35, the relative viability ([2]; first compound 10 µM) was 0.358 and the relative viability ([3]; first compound 0.6325 µM) was 0.225. For the same cell line, the relative viability ([3]; first compound 2 µM) was 0.358, the relative viability ([3]; first compound 6.325 µM) was 0.319 and the relative viability ([3]; first compound 20 µM) was 0.308. For the same cell line, the relative viability ([4]; first compound 0.6325 µM) was 0.665, the relative viability ([4]; first compound 2 µM) was 0.412 and the relative viability ([4]; first compound 6.325 µM) was 0.52. It also gave a relative viability ([4]; first compound 20 µM) of 0.653.

Work on NCI-H2342 yielded a relative viability ([1]; first compound 0.02 µM) of 0.729, a relative viability ([1]; first compound 0.06325 µM) of 0.805 and a relative viability ([1]; first compound 0.2 µM) of 0.773. For the same cell line, the relative viability ([1]; first compound 0.6325 µM) was 0.814, the relative viability ([1]; first compound 2 µM) was 0.752 and the relative viability ([4]; first compound 0.6325 µM) was 0.557. It also gave a relative viability ([4]; first compound 2 µM) of 0.486, a relative viability ([4]; first compound 6.325 µM) of 0.509 and a relative viability ([4]; first compound 20 µM) of 0.495.

With ABC-1 the relative viability ([4]; first compound 2 µM) was 0.628, the relative viability ([4]; first compound 6.325 µM) was 0.506 and the relative viability ([4]; first compound 20 µM) was 0.358.

With NCI-H522 the relative viability ([1]; first compound 0.02 µM) was 1.07, the relative viability ([1]; first compound 0.06325 µM) was 0.967 and the relative viability ([1]; first compound 0.2 µM) was 0.941. It also gave a relative viability ([1]; first compound 0.6325 µM) of 0.891, a relative viability ([1]; first compound 2 µM) of 1.04 and a relative viability ([4]; first compound 0.6325 µM) of 0.872. For the same cell line, the relative viability ([4]; first compound 2 µM) was 0.585, the relative viability ([4]; first compound 6.325 µM) was 0.413 and the relative viability ([4]; first compound 20 µM) was 0.475.

Cell Line Calu-6 has a relative viability ([2]; first compound 0.1 µM) of 0.848, a relative viability ([2]; first compound 0.3162 µM) of 0.977 and a relative viability ([2]; first compound 1 µM) of 0.72. It also gave a relative viability ([2]; first compound 3.162 µM) of 0.955, a relative viability ([2]; first compound 10 µM) of 0.691 and a relative viability ([3]; first compound 0.6325 µM) of 0.78. The relative viability ([3]; first compound 2 µM) was 0.431, the relative viability ([3]; first compound 6.325 µM) was 0.212 and the relative viability ([3]; first compound 20 µM) was 0.0896.

In the case of NCI-H650, the relative viability ([1]; first compound 0.02 µM) is reported as 0.982, the relative viability ([1]; first compound 0.06325 µM) is reported as 0.955 and the relative viability ([1]; first compound 0.2 µM) is reported as 0.863. It also gave a relative viability ([1]; first compound 0.6325 µM) of 0.933, a relative viability ([1]; first compound 2 µM) of 0.83 and a relative viability ([4]; first compound 0.6325 µM) of 0.188. It also gave a relative viability ([4]; first compound 2 µM) of 0.195, a relative viability ([4]; first compound 6.325 µM) of 0.19 and a relative viability ([4]; first compound 20 µM) of 0.257.

In the case of NCI-H661, the relative viability ([1]; first compound 0.02 µM) is reported as 0.907, the relative viability ([1]; first compound 0.06325 µM) is reported as 0.867 and the relative viability ([1]; first compound 0.2 µM) is reported as 0.876. The relative viability ([1]; first compound 0.6325 µM) was 0.909, the relative viability ([1]; first compound 2 µM) was 0.905 and the relative viability ([4]; first compound 0.6325 µM) was 0.397. The relative viability ([4]; first compound 2 µM) was 0.435, the relative viability ([4]; first compound 6.325 µM) was 0.457 and the relative viability ([4]; first compound 20 µM) was 0.142.
